Target: T1, human mGluR7 (Homo sapiens, UniProt Q14831)
T1 construct: expressed in transfected cells
Assay: mGluR7 assay: CRE-directed luciferase reporter gene assay, reduction of forskolin stimulated cAMP production
Assay type: cell-based
Details: stable CHO cell line expressing the CRE-luc reporter and human mGluR7 genes; decrease of forskolin stimulated luminescence; 10-point concentration-response, duplicate wells
Procedure: The ability of the test compounds to activate mGluR7 was determined by their ability to reduce forskolin stimulated cAMP production. Compounds were assessed in a CRE-directed luciferase reporter gene assay, using a stable CHO cell line expressing the CRE-luc reporter and human mGluR7 genes. In this cell line, production of cAMP stimulated the transcription of the luciferase gene and luciferase activity was then measured in a luminescent enzyme assay (Steady Glo assay; Promega E2550). Activation of mGluR7 decreased the forskolin stimulated luminescence signal.
The day prior to the assay, compounds were serially diluted in DMSO (100× final assay concentration (FAC)), in 384-well plates which were then stored in the dark at room temperature (RT) until use. Cells were seeded at 12.5 k/well in white, clear bottom 384-well plates (Corning 3707) and left for one hour at RT followed by an overnight incubation (37° C.). The following day, the DMSO compound plate was diluted 1:20 (5× FAC) in Opti-MEM I (Life Technologies 11058021). The growth media was removed from the cell plate and replaced with 15 μl Opti-MEM I, followed by a 5 μl addition from the 5× compound plate and a fifteen minute incubation (37° C.). Forskolin (Sigma F3917) was then added to the wells (5 μl of 2.5 μM) and the plate was incubated for five hours (37° C.). During this incubation, the Steady Glo Substrate reagent was warmed to 37° C. Aliquots (11 ml; stored at −20° C.) of this reagent were prepared by dissolving the contents of 1 vial of lyophilised substrate in 100 ml Steady-Glo buffer. A 25 μl addition of the substrate was made to all wells and the plate was incubated for thirty minutes at RT, on a plate shaker (300 rpm; in the dark). Luminescence was then measured using the EnVision Multilabel Reader (Perkin Elmer).
Compound activity was examined using a 10-point, half log concentration-response range and each concentration was tested in duplicate wells. Luminescence values were normalised to ‘maximum’ (forskolin alone) and ‘minimum’ (forskolin in the presence of tool mGluR7 agonist) controls.

T1 sequence (Q14831 35-915): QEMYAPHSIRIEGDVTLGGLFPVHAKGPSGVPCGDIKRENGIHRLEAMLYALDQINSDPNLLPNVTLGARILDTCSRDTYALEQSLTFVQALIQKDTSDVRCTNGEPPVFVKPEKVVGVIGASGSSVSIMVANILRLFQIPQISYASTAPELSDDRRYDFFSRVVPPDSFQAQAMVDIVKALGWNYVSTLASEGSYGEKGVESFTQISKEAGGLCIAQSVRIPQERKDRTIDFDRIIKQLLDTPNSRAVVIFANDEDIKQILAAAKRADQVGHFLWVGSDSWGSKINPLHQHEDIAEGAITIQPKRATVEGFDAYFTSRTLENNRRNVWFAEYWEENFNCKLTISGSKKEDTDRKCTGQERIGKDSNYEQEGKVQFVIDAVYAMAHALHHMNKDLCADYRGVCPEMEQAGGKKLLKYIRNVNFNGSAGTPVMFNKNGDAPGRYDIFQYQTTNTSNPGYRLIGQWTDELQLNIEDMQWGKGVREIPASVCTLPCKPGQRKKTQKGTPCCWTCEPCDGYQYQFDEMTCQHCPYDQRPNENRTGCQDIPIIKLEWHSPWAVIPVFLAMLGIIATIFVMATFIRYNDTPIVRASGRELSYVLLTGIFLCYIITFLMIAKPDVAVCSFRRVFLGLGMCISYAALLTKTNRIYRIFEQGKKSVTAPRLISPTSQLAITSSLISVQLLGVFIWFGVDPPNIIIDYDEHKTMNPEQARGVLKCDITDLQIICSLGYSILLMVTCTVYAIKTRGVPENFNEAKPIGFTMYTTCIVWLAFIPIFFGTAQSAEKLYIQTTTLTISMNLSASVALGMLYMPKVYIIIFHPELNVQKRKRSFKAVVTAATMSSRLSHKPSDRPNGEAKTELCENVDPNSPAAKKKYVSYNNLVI

Row | SMILES | EC50 [µM]
1 | CCO[C@@H]1c2ccccc2C[C@H]1NC(=O)[C@@H](NCc1csc(C)n1)c1ccc(F)cc1 (mixture of isomers) [Example 60, (2S)—N-(trans)-(1-ethoxy-2,3-dihydro-1H-inden-2-yl)-2-(4-fluorophenyl)-2-{[(2-methyl-1,3-thiazol-4-yl)methyl]amino}acetamide] | 0.003
2 | CC(C)(C)OC(=O)N[C@H]1c2ccccc2C[C@@H]1NC(=O)C(c1ccc(F)cc1F)n1cccn1 (mixture of isomers) [Example 81, tert-butyl N-[(1S,2S)-2-[2-(2,4-difluorophenyl)-2-(1H-pyrazol-1-yl)acetamido]-2,3-dihydro-1H-inden-1-yl]carbamate] | 0.083
3 | Cc1nccn1C(C(=O)N[C@H]1Cc2ccccc2[C@@H]1NC(=O)OC(C)(C)C)c1ccc(F)cc1F (mixture of isomers) [Example 82, tert-butyl N-[(1S,2S)-2-[2-(2,4-difluorophenyl)-2-(2-methyl-1H-imidazol-1-yl)acetamido]-2,3-dihydro-1H-inden-1-yl]carbamate] | 0.772
4 | CC(C)(C)OC(=O)N[C@H]1c2ccccc2C[C@@H]1NC(=O)C(c1ccc(F)cc1F)N1CC(F)C1 (mixture of isomers) [Example 93, tert-butyl N-[(1S,2S)-2-[2-(2,4-difluorophenyl)-2-(3-fluoroazetidin-1-yl)acetamido]-2,3-dihydro-1H-inden-1-yl]carbamate] | 0.023
5 | C[C@H](C(=O)NC1Cc2ccccc2C1O)c1ccccc1 (mixture of isomers) [Example 2, (2S)—N-((trans)-1-hydroxy-2,3-dihydro-1H-inden-2-yl)-2-phenylpropanamide] | 0.107
6 | COC1c2ccccc2CC1NC(=O)[C@@H](C)c1ccccc1 (mixture of isomers) [Example 7, (2S)—N-((trans)-1-methoxy-2,3-dihydro-1H-inden-2-yl)-2-phenylpropanamide] | 0.029
7 | COC1c2ccccc2CC1NC(=O)[C@@H](C)c1ccc(F)cc1F (mixture of isomers) [Example 25, (2S)-2-(2,4-difluorophenyl)-N-((trans)-1-methoxy-2,3-dihydro-1H-inden-2-yl)propanamide] | 0.024
8 | CCOC1c2ccccc2CC1NC(=O)[C@@H](C)c1ccc(F)cc1F (mixture of isomers) [Example 28, (2S)-2-(2,4-difluorophenyl)-N-((trans)-1-ethoxy-2,3-dihydro-1H-inden-2-yl)propanamide] | 0.028
9 | COC1c2ccccc2CC1NC(=O)[C@@H](C)c1ccc(F)cc1 (mixture of isomers) [Example 36, (2S)-2-(4-fluorophenyl)-N-((trans)-1-methoxy-2,3-dihydro-1H-inden-2-yl)propanamide] | 0.036
10 | CC[C@H](C(=O)NC1Cc2ccccc2C1OC)c1ccc(F)cc1 (mixture of isomers) [Example 44, (2S)-2-(4-fluorophenyl)-N-((trans)-1-methoxy-2,3-dihydro-1H-inden-2-yl)butanamide] | 0.009
11 | COC1c2ccccc2CC1NC(=O)[C@@H](N)c1ccc(F)cc1 (mixture of isomers) [Example 54, (2S)-2-amino-2-(4-fluorophenyl)-N-(trans)-(1-methoxy-2,3-dihydro-1H-inden-2-yl)acetamide] | 0.066
12 | C[C@H](C(=O)NC1Cc2ccccc2C1N1CCCC1)c1ccccc1 (mixture of isomers) [Example 78, (2S)-2-phenyl-N-(trans)-[1-(pyrrolidin-1-yl)-2,3-dihydro-1H-inden-2-yl]propanamide] | 0.322
13 | CS(=O)(=O)[C@@H]1c2ccccc2C[C@H]1NC(=O)C(OCC1CC1)c1ccccc1 (relative stereo) [Example 135, 2-(cyclopropylmethoxy)-N-(trans)-(1-methanesulfonyl-2,3-dihydro-1H-inden-2-yl)-2-phenylacetamide] | 0.004
14 | C[C@H](C(=O)NC1Cc2ccccc2C1O)c1ccccc1 (single isomer, unassigned) [Example 3] | 0.349
15 | C[C@H](C(=O)NC1Cc2ccccc2C1O)c1ccccc1 (single isomer, unassigned) [Example 4] | 0.121
16 | C[C@H](C(=O)NC1Cc2ccccc2C1O)c1ccccc1 (single isomer, unassigned) [Example 5] | 0.654
17 | C[C@H](C(=O)NC1Cc2ccccc2C1O)c1ccccc1 (single isomer, unassigned) [Example 6] | 1.56
18 | COC1c2ccccc2CC1NC(=O)[C@@H](C)c1ccccc1 (single isomer, unassigned) [Example 8] | 0.057
19 | COC1c2ccccc2CC1NC(=O)[C@@H](C)c1ccccc1 (single isomer, unassigned) [Example 9] | 0.037
20 | CCC(C(=O)N[C@H]1Cc2ccccc2[C@@H]1N)c1ccc(F)cc1F (single isomer, unassigned) [Example 15] | 0.025
21 | CCC(C(=O)N[C@H]1Cc2ccccc2[C@@H]1N)c1ccc(F)cc1F (single isomer, unassigned) [Example 16] | 0.747
22 | COC1c2ccccc2CC1NC(=O)[C@@H](C)c1ccc(F)cc1F (single isomer, unassigned) [Example 26] | 0.064
23 | COC1c2ccccc2CC1NC(=O)[C@@H](C)c1ccc(F)cc1F (single isomer, unassigned) [Example 27] | 0.021
24 | CCOC1c2ccccc2CC1NC(=O)C(C)c1ccc(F)cc1F (single isomer, unassigned) [Example 29] | 0.01

Row | SMILES | EC50 [µM]
25 | CCOC1c2ccccc2CC1NC(=O)C(C)c1ccc(F)cc1F (single isomer, unassigned) [Example 30] | 0.022
26 | CCOC1c2ccccc2CC1NC(=O)[C@@H](C)c1ccc(F)cc1 (single isomer, unassigned) [Example 32] | 0.014
27 | CCOC1c2ccccc2CC1NC(=O)[C@@H](C)c1ccc(F)cc1 (single isomer, unassigned) [Example 33] | 0.039
28 | COC1c2ccccc2CC1NC(=O)[C@@H](C)c1ccc(F)cc1 (single isomer, unassigned) [Example 37] | 0.038
29 | COC1c2ccccc2CC1NC(=O)[C@@H](C)c1ccc(F)cc1 (single isomer, unassigned) [Example 38] | 0.016
30 | CC[C@H](C(=O)NC1Cc2ccccc2C1OC)c1ccc(F)cc1 (single isomer, unassigned) [Example 45] | 0.017
31 | CC[C@H](C(=O)NC1Cc2ccccc2C1OC)c1ccc(F)cc1 (single isomer, unassigned) [Example 46] | 0.011
32 | CC(C)(C)OC(=O)N[C@H]1c2ccccc2C[C@@H]1NC(=O)C(c1ccc(F)cc1F)n1ccccc1=O (single isomer, unassigned) [Example 48] | 0.336
33 | CC(C)(C)OC(=O)N[C@H]1c2ccccc2C[C@@H]1NC(=O)C(c1ccc(F)cc1F)n1ccccc1=O (single isomer, unassigned) [Example 49] | 0.133
34 | N[C@H]1c2ccccc2C[C@@H]1NC(=O)C(c1ccc(F)cc1F)n1ccccc1=O (single isomer, unassigned) [Example 50] | 3.92
35 | N[C@H]1c2ccccc2C[C@@H]1NC(=O)C(c1ccc(F)cc1F)n1ccccc1=O (single isomer, unassigned) [Example 51] | 0.565
36 | COC1c2ccccc2CC1NC(=O)[C@@H](NCC1CC1)c1ccc(F)cc1 (single isomer, unassigned) [Example 55] | 0.001
37 | COC1c2ccccc2CC1NC(=O)[C@@H](NCC1CC1)c1ccc(F)cc1 (single isomer, unassigned) [Example 56] | 0.001
38 | C[C@H](C(=O)NC1Cc2ccccc2C1O)c1ccc(F)cc1 (single isomer, unassigned) [Example 62] | 0.704
39 | C[C@H](C(=O)NC1Cc2ccccc2C1O)c1ccc(F)cc1 (single isomer, unassigned) [Example 63] | 0.767
40 | C[C@H](C(=O)NC1Cc2ccccc2C1N1CCCC1)c1ccc(F)cc1 (single isomer, unassigned) [Example 67] | 0.016
41 | C[C@H](C(=O)NC1Cc2ccccc2C1N1CCCC1)c1ccc(F)cc1 (single isomer, unassigned) [Example 68] | 0.028
42 | CC(C(=O)N[C@H]1Cc2ccccc2[C@@H]1N)c1ccc(Cl)cc1 (single isomer, unassigned) [Example 69] | 0.047
43 | CC(C(=O)N[C@H]1Cc2ccccc2[C@@H]1N)c1ccc(Cl)cc1 (single isomer, unassigned) [Example 70] | 0.956
44 | C[C@H](C(=O)NC1Cc2ccccc2C1N1CCOCC1)c1ccc(F)cc1 (single isomer, unassigned) [Example 73] | 0.045
45 | CC(F)(C(=O)N[C@H]1Cc2ccccc2[C@@H]1N)c1ccc(F)cc1 (single isomer, unassigned) [Example 76] | 0.288
46 | CC(F)(C(=O)N[C@H]1Cc2ccccc2[C@@H]1N)c1ccc(F)cc1 (single isomer, unassigned) [Example 77] | 2.63
47 | C[C@H](C(=O)NC1Cc2ccccc2C1NCC(F)F)c1ccc(F)cc1 (single isomer, unassigned) [Example 84] | 0.008

Reference: patent US20190031599A1, “INDANE DERIVATIVES AS MGLUR7 MODULATORS” (Takeda Pharmaceutical Company Limited, priority 2016, published 2019)
